How the values were obtained:
[1] = tested on: Escherichia coli strain 2131; assay: Ozone killing of microorganisms on catheter surfaces; type: cell-based
Experimental: A clinical isolate of Escherichia coli strain 2131 that had caused catheter-related infection was used. The organism was grown overnight in tryptic soy broth (TSB) at 37° C., then diluted to a concentration of 10^4 cfu/ml of TSB. The lumens of four 7-french, 20 -cm, triple-lumen polyurethane central venous catheters were filled with this working bacterial suspension and the catheters were then incubated at 25° C. for 4 hours. After draining the bacterial suspension from the lumens of catheters, the lumens were flushed with 1 ml of sterile normal saline. Using a closed dynamic flow system, the lumens of the four catheters were continually perfused for 4 hours at 25° C. with a recirculating total volume of 3 ml of sterile normal saline at a flow rate of 0.1 ml/minute. Ozone was continuously bubbled into the beaker containing the saline perfusing the lumens of two catheters (experimental arm), but no ozone was bubbled into the beaker containing the saline perfusing the lumens of the other two catheters (control arm). Four hours later, two 2 -cm segments from each of the four catheters (two in the experimental arm, and two in the control arm) were cultured onto blood agar plates using the sonication technique. Samples of the saline running through the experimental and control catheters were also inoculated onto blood agar plates. Colony counts were determined at 24 hours after incubation of the agar plates at 37° C. The following table summarizes the results of cultures of catheter segments: […]

[2] = tested on: Escherichia coli strain 2131; assay: Ozone killing of microorganisms in solution; type: cell-based; conditions: 25° C.
Experimental: A clinical isolate of Escherichia coli strain 2131 that had caused catheter-related infection was used. The organism was grown overnight in tryptic soy broth (TSB) at 37° C., then diluted to a concentration of 10^4 cfU/ml of normal saline. A 120 ml aliquot of the 10^4 cfU/ml working bacterial suspension was placed in each of two beakers at 25° C.: (1) In the experimental arm, ozone was bubbled into the bacterial suspension; (2) In the control arm, no ozone was bubbled. Four hours later, three samples of the bacterial suspension in each beaker and serial dilutions were inoculated onto blood agar plates. Colony counts were determined at 24 hours after incubation of the agar plates at 37° C. The following table summarizes the results of cultures: […]

## O=[O+][O-] [ozone]
[1]; experimental arm: catheter lumens perfused 4 hours at 25° C. with saline continuously bubbled with ozone, sonication technique
  Number of E. coli colony forming units cultured from 2-cm catheter segments: 0 colony forming units
[1]; lumens perfused 4 hours with ozone-bubbled saline
  Ozone killing of E. coli adhered to catheter surface (result in words): kills E. coli that has adhered to the catheter surface
[1]; ozone-bubbled saline after 4 hours perfusion, control 42×10^2 cfu/ml
  Concentration of E. coli in the saline solution used to perfuse the infected lumens of catheters: 9×10^2 cfu/ml
[2]; experimental arm: ozone bubbled into 10^4 cfu/ml bacterial suspension in normal saline, sampled four hours later, colony counts at 24 hours
  Number of E. coli colony forming units per ml (cfu/ml): 0 cfu/ml
[2]; ozone bubbled into bacterial suspension, 4 hours
  Ozone killing of E. coli in solution (result in words): kills E. coli in solution
